≈ marks a conversion by molar mass, not a printed value.
How the values were obtained:
topoisomerase I = topoisomerase I (Homo sapiens, UniProt P11387); experiment: Topoisomerase I inhibition; format: biochemical
[1] = system: phosphorylated p53 [pS15]; experiment: Phosphorylated p53 ELISA in HCT-116 cells; format: cell-based; details: 24 hr, 1-5 uM
Experimental: The protocol for this assay is described as follows. On Day 1, cells were seeded at 2×10^6 cells/10 cm dish/10 mL medium. On day two, cells were treated as follows: control=0.05% DMSO (5 μl DMSO stock/10 ml medium); 1 μM CX3543 (1 μl Stock (10 mM)/10 ml medium); 2 μM CX3543 (2 μl Stock (10 mM)/10 ml medium); 3 μM CX3543 (3 μl Stock (10 mM)/10 ml medium); 4 μM CX3543 (4 μl Stock (10 mM)/10 ml medium) and 5 μM CX3543 (5 μl Stock (10 mM)/10 ml medium).
On Day 3, cells were harvested and attached and floating cells were collected. Cells were washed twice with PBS, counted and collected at 4×10^6 cells/sample. The cell pellet was frozen at −80° C. until further use. […]
Test Procedure. […] After washing, the plate is inverted and tapped dry on absorbance tissue. […]
Wash wells with 400 μl working wash buffer four times. […] After washing, the plate is inverted and tapped try on absorbance tissue. […] After washing, the plate is inverted and tapped try on absorbance tissue. […] Read the plate at A450 nm by setting chromogen blank (=100 μl TMB+100 μl Stop soln) as blank. Read absorbance within 2 hours of assay completion.

HCT-116 cells = experiment: DNA cell cycle analysis; format: cell-based; details: serum-starved HCT-116 cells, 24 hr, 1 to 5 um
Experimental: The following protocol was followed in this example. Seed 1.5-2.0×10^6 cells/10 cm dish (seed one extra dish for unstained cells). Incubate cells in 37° C. humidified 5% CO2 incubator for 24 hours. For synchronizing cells in a low growth state to make cells quiescent, remove media and rinse once with serum-free media, add 10 ml of serum-free media to each dish. Incubate the cells for 24 hr in a 37° C. humidified 5% CO2 incubator. Remove media and add treatment (diluted in serum contained media, 10 ml): 1-5 μM CX-3543 plus control. Incubate the cells for 24 hr in a 37° C. humidified 5% CO2 incubator.
To trypsinize/isolate cells, remove treatment. Add 3 ml trypsin/EDTA solution. Keep floating cells and combine with attached cells. Incubate for 5 min in a 37° C. humidified 5% CO2 incubator. Add 3 ml media (containing FBS) to wells and pipette into centrifuge tube. Centrifuge at 1000 rpm for 5 minutes. Decant supernatant and re-suspend pellet in 2-3 ml PBS. Count cells and wash cells once by putting 2×10^6 cells/tube, adding 2 ml PBS and centrifuging at 1000 rpm for 5 minutes. Re-suspend pelleted cells in 0.3 ml cold PBS.
To fix cells, gently add 0.7 ml ice cold 70% ethanol drop wise to tube containing 0.3 ml of cell suspension in PBS while vortexing. Leave on Ice for one hour (or up to a few days at 4C). Centrifuge at 1000 rpm for 5 minutes. Wash one time with cold PBS (1-2 ml). […]

Formulated solubility = format: physicochemical

Chain of topoisomerase I (P11387 whole entry): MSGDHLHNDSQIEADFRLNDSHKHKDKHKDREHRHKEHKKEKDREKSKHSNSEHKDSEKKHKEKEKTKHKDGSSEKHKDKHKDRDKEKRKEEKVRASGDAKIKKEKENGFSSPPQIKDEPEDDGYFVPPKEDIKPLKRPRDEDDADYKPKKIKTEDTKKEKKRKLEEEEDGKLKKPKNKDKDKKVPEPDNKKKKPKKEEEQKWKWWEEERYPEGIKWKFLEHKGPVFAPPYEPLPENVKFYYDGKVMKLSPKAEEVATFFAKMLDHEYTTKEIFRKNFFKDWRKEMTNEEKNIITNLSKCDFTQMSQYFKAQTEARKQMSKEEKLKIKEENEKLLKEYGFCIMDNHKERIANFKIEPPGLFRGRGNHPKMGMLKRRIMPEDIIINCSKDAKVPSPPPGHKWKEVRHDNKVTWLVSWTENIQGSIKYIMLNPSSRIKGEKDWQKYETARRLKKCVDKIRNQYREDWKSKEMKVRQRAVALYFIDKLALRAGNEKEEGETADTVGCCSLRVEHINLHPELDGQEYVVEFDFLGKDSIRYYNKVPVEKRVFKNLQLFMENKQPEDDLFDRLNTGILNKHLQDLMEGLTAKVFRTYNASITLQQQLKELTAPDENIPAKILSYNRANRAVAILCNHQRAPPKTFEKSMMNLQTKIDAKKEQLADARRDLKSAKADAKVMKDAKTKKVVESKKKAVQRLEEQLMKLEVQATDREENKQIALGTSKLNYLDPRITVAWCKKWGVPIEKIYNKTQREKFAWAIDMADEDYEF

CN1CCCC1CCNC(=O)c1cn2c3c(c(N4CCC(c5cnccn5)C4)c(F)cc3c1=O)Oc1cc3ccccc3cc1-2 (stereo not shown) [CX-3543]
inhibitory activity against topoisomerase I (topoisomerase I): not to be an inhibitor or poison | population of phosphorylated p53 [1]: enhanced | effect on the distribution of cells throughout the cell cycle (HCT-116 cells): no observable effect | solubility (Formulated solubility): ~20 mg/mL (≈ 33.1 mM)

— patent publication US7507727B2, “Substituted quinobenzoxazine analogs and methods of using thereof” (Cylene Pharmaceuticals, Inc., priority 2003, dated 2009)
